{"source": "paper PMC4669789", "about": "“Selective inhibition of HDAC8 decreases neuroblastoma growth in vitro and in vivo and enhances retinoic acid-mediated differentiation” (Cell Death & Disease, 2015)", "key": {"NMRI Foxn1 nude mice": {"test_system": "NMRI Foxn1 nude mice", "assay": "Blood parameters (clinical chemistry, hematology) at MTD", "assay_type": "in vivo", "conditions": "n=8, mean ±S.D.", "protocol": "Each dose was tested in a cohort of three animals. Resulting MTDs were validated within cohorts of eight animals for each inhibitor. […] As a reference, the blood of 12 untreated NMRI Foxn1 nude mice was analyzed. […] Vorinostat was used as a control for unselective HDAC inhibition.\nDLTs were monitored by observation of general condition and determination of body weight. We used several criteria for objectively measuring DLT. These included a decrease in body weight of ≥20% compared with baseline body weight, blood analysis of standard parameters for clinical chemistry and hematology (central laboratory of University Hospital Heidelberg, Heidelberg, Germany) and organ histopathology (formalin-fixed, paraffin-embedded organs), by H&E stain for the detection of necrosis (Prof. Dr. AD Gruber, Institute for Veterinary Pathology, Berlin, Germany)."}, "BE(2)-C cells": {"test_system": "BE(2)-C cells", "assay": "Western blot of histone 4, α-tubulin and SMC3 acetylation", "assay_type": "cell-based, human", "protocol": "Western blot analysis was performed as described previously.[15] For detection of phosphoproteins, PhosStop (Roche, Penzberg, Germany) was added to the lysis buffer."}, "[1]": {"conditions": "working concentrations: 40 μM Cpd2, 4 μM PCI-34051 and PCI-48000"}}, "data": [{"smiles": "O=C(NO)c1cccc2ccccc12", "note": "[Cpd2, 1-naphthohydroxamic acid]", "values": [{"measurement": "Hematocrit", "setting": "NMRI Foxn1 nude mice; normal range 0.3–0.4", "result": "0.4±0.01", "unit": "l/l"}, {"measurement": "Uric acid", "setting": "NMRI Foxn1 nude mice; normal range 0.4–3.2", "result": "0.9 ± 1.0", "unit": "mg/dL"}, {"measurement": "Leukocytes", "setting": "NMRI Foxn1 nude mice; normal range 1.8–6.1", "result": "4.4 ± 1.8", "unit": "nL⁻¹"}, {"measurement": "Calcium", "setting": "NMRI Foxn1 nude mice; normal range 2.1–2.4", "result": "2.4 ± 0.4", "unit": "mmol/L"}, {"measurement": "Potassium", "setting": "NMRI Foxn1 nude mice; normal range 3.8–6.4", "result": "6.9 ± 2.2", "unit": "mmol/L"}, {"measurement": "Erythrocytes", "setting": "NMRI Foxn1 nude mice; normal range 5.5–8.2", "result": "7.6 ± 0.3", "unit": "pL⁻¹"}, {"measurement": "Hemoglobin", "setting": "NMRI Foxn1 nude mice; normal range 9.4–12.7", "result": "12.4 ± 0.7", "unit": "g/dL"}, {"measurement": "Urea", "setting": "NMRI Foxn1 nude mice; normal range 17.4–38.3", "result": "23.5 ± 6.4", "unit": "mg/dL"}, {"measurement": "AP", "setting": "NMRI Foxn1 nude mice; normal range 62.5–117.6", "result": "123.8±35.8", "unit": "U/l"}, {"measurement": "Chloride", "setting": "NMRI Foxn1 nude mice; normal range 97.3–109.7", "result": "99.9 ± 2.2", "unit": "mmol/L"}, {"measurement": "Sodium", "setting": "NMRI Foxn1 nude mice; normal range 123.4–135.7", "result": "136.8 ± 5.3", "unit": "mmol/L"}, {"measurement": "Glucose", "setting": "NMRI Foxn1 nude mice; normal range 176.8–238.6", "result": "187.8 ± 39.1", "unit": "mg/dL"}, {"measurement": "Thrombocytes", "setting": "NMRI Foxn1 nude mice; normal range 242.5–806.8", "result": "682.0 ± 151.1", "unit": "nL⁻¹"}, {"measurement": "GGT", "setting": "NMRI Foxn1 nude mice; normal range −1.9 to 1.0", "result": "−2.0±1.0", "unit": "U/l"}, {"measurement": "tubulin acetylation (HDAC6 off-target activity)", "setting": "BE(2)-C cells; increasing concentrations far above IC50 values (up to 200 μM Cpd2, 100 μM PCI-34051)", "result": "induced tubulin acetylation"}, {"measurement": "SMC3 acetylation (HDAC8 substrate)", "setting": "BE(2)-C cells; [1]", "result": "increase in acetylation level"}, {"measurement": "histone 4 acetylation (HDAC1-3 substrate)", "setting": "BE(2)-C cells; [1]", "result": "absence of HDAC1-3 substrate acetylation"}, {"measurement": "tubulin acetylation (HDAC6 substrate)", "setting": "BE(2)-C cells; [1]", "result": "absence of HDAC6 substrate acetylation"}]}]}
